In patent publication US20220152160A1, “DOSING REGIMEN” (Novo Nordisk A/S, priority 2013, published 2022):

What was measured:
[1] = in vivo; cited from earlier work
[2] = tested on: insulin-naïve participants with T2DM; conditions: human, in vivo
From the text: (§1) This phase 3a, 26-week, randomized, controlled, open-label, multinational, treat-to-target, non-inferiority trial compared the efficacy and safety of IDeg U-200 (i.e. 200 U/mL) and IGlar (100 U/mL) both administered OD in combination with metformin (met) ±DPP-4 inhibitor in insulin-naïve participants with T2DM previously treated with oral antidiabetic drugs OAD(s), who qualified for intensification of treatment. The trial was open-label because the pen devices used to administer the basal insulins were distinctively different and blinding was, therefore, impossible.
(§2) Using the interactive voice/web response system, eligible participants were randomized 1:1 to either once-daily IDeg U-200 (IDeg 200 U/mL, 3 mL FlexTouch®, Novo Nordisk, Bagsvård, Denmark) or once-daily IGlar (Lantus® 100 U/mL, 3 mL SoloStar® Sanofi Aventis U.S. LLC) and continued metformin ±DPP-4 inhibitor treatment. Trial participants were instructed to continue the same total daily dose of metformin and DPP-4 inhibitor treatment as before the start of the trial.
(§3) Insulin degludec was administered once-daily with the main evening meal and, consistent with its product labelling, IGlar was administered once-daily (OD) at the same time each day. Either treatment was injected subcutaneously in the thigh, upper arm or abdomen. The starting dose for each was 10 U, and during the treatment period, the insulin dose was systematically titrated using a treat-to-target approach striving for a pre-breakfast self-measured plasma glucose (SMPG) level of 4.0-4.9 mmol/L (71-89 mg/dL). Both IDeg and IGlar were similarly titrated once weekly in 2 U increments. The treatment period was 26 weeks and doses were individually titrated in an effort to achieve the same glucose targets with both treatments.
The primary endpoint for this study was change in HbA1c (%) from baseline after 26 weeks of treatment. Secondary confirmatory endpoints tested were number of treatment-emergent confirmed hypoglycaemic episodes, change from baseline in central laboratory-measured fasting plasma glucose (FPG), within subject variability as measured by coefficient of variation (%), and frequency of participants achieving HbA1c<7% without hypoglycaemic episodes. […]
Treatment difference in change from baseline in HbA1c after 26 weeks was analyzed using an Analysis of Variance (ANOVA) model with treatment, antidiabetic treatment at screening, sex and region (Europe, North America, or South Africa) as fixed factors, and age and baseline HbA1c as covariates. […] The number of treatment-emergent confirmed hypoglycaemic episodes was analyzed using a negative binomial regression model including treatment, antidiabetic therapy at screening, sex and region as fixed factors, and age as covariate. […]

[3] = tested on: insulin-naïve participants with T2DM; experiment: Clinical Trial 1 (26-week, treat-to-target): glycaemic control (HbA1c, FPG), IDeg U-200 vs IGlar; assay type: in vivo, human; conditions: whole population
From the text: as §1
Participants who were insulin-naïve adults with T2DM for at least 6 months, HbA1, 7-10% (inclusive), BMI s 45 kg/m^2, and previously treated with metformin with or without additional OADs for at least 3 months were eligible to participate in the study.
as §2, §3
The primary endpoint for this study was change in HbA1c (%) from baseline after 26 weeks of treatment. Secondary confirmatory endpoints tested were number of treatment-emergent confirmed hypoglycaemic episodes, change from baseline in central laboratory-measured fasting plasma glucose (FPG), within subject variability as measured by coefficient of variation (%), and frequency of participants achieving HbA1c<7% without hypoglycaemic episodes. The supportive secondary endpoints included 9-point SMPG profiles, frequency of participants achieving HbA1c<7%, and Health-Related Quality of Life (HRQoL; Short Form 36 [SF-36 v.2] questionnaire) scores. The safety assessments were adverse events, hypoglycaemic episodes, insulin dose, body weight, physical examination, vital signs, fundoscopy, electrocardiogram (ECG) and laboratory tests (including antibodies). Confirmed hypoglycaemic episodes were defined as episodes with a PG value of <3.1 mmol/L (56 mg/dL) and severe episodes requiring assistance.^7 Hypoglycaemic episodes occurring between 00:01 h and 05:59 h (inclusive) were classified as nocturnal.
Analyses of all efficacy endpoints were based on the full analysis set (FAS) which included all randomized participants. The safety analysis set included all participants who received at least one dose of the investigational product or the comparator. Missing values were imputed using the last observation carried forward (LOCF) method.
The primary objective of this trial was to confirm the non-inferiority of IDeg U-200 OD to IGlar OD as assessed by change in HbA1c from baseline after 26 weeks of treatment. Non-inferiority was confirmed if the upper limit of the 95% confidence interval (Cl) for the treatment difference was 50.4%. […]

For “NεB29-(Nα—(HOOC(CH2)14CO)-γ-Glu)des(B30)-human insulin [insulin degludec]”, the duration of action [1] is given as “greater than 42 hours”, the “%: Percentage of subjects experiencing at least one episode” value [2] is given as 6.1% and the “ERR IDeg/IGlar, nocturnal confirmed hypoglycaemia” value [2] is given as 0.64. For the same substance, the “estimated rate ratio (ERR) IDeg/IGlar, confirmed hypoglycaemia” value [2] was 0.86, the “rate of nocturnal confirmed hypoglycaemic episodes” value [2] was 0.18 episodes/patient-year and the “non-inferiority to IGlar in change in HbA1c from baseline” value ([3]; 26 weeks) was “non-inferiority”. The “estimated treatment difference (ETD) IDeg-IGlar in change in HbA1c” value ([3]; 26 weeks, 95% CI −0.11, 0.19) was 0.04, the “ETD in FPG (IDeg vs IGlar)” value ([3]; 26 weeks, 95% CI −0.78, −0.06) was −0.42 and the “Central laboratory-measured FPG decrease” value ([3]; after 26 weeks) was 4.0 mmol/L. The “Central laboratory-measured FPG reached” value ([3]; after 26 weeks) was 5.7 mmol/L and the “FPG reduction compared with IGlar” value ([3]; after 26 weeks) was “statistically significantly greater FPG reduction”.
